Experimental data as given in article PMC8539097, “Structural Insight into a Yeast Maltase—The BaAG2 from Blastobotrys adeninivorans with Transglycosylating Activity” (Journal of Fungi, 2021).

Molecular target: T1, BaAG2 (Blastobotrys adeninivorans, UniProt Z9CO09ION3)
T1 construct: wild type, recombinant from plasmid pURI3-BaAG2Cter in E. coli BL21(DE3), Ni-IMAC purified (plus SEC for crystals); domains span residues 1-581; most likely monomer
T1 sequence (Z9CO09ION3 1-580): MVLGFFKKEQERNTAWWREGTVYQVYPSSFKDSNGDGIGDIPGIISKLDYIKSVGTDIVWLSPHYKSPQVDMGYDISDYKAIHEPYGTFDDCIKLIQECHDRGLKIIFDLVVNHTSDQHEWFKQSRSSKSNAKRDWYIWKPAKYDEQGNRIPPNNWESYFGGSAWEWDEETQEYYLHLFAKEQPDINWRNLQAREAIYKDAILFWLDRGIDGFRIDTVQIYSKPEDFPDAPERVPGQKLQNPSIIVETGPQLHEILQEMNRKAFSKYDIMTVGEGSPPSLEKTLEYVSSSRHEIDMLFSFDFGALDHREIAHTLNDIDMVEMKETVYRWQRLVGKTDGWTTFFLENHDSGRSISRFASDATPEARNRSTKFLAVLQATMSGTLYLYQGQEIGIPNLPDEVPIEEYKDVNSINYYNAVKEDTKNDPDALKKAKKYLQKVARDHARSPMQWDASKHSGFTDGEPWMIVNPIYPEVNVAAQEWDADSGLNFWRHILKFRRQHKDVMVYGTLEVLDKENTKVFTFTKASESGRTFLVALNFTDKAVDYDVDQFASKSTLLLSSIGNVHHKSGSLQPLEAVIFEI
Assay: X-ray crystallography, crystal soaking, […] Å
Format: binding
Details: pH 5.5, 100 mM glucose soak; active site, subsite -1

OC[C@H]1OC(O)[C@H](O)[C@@H](O)[C@@H]1O (stereo partly drawn) [D-glucose]
X-ray crystallography, crystal soaking, 2.13 Å: codes 7P01 (BaAG2-acarbose) and 7P07 (BaAG2-glucose)
